From ChEMBL document CHEMBL3046001, “4-Thiazolidinone and 1-thia-3,4,9-triaza fluorene conjugates: synthesis, characterization and antimicrobial screening” (2013) come the findings set out here.

Experiment [1] relates to Pseudomonas fluorescens. The experiment in a line: Antibacterial activity against Pseudomonas fluorescens MTCC 2421 assessed as growth inhibition at 250 ug/mL after 48 hr by agar diffusion method. Format: functional. To be noted: MTCC 2421, 48 h, read-out: DIZ. For orientation: Agar diffusion results depend on both activity and mobility in agar.
Experiment [2] deals with Penicillium chrysogenum. The experiment in a line: Antifungal activity against Penicillium chrysogenum MTCC 161 assessed as growth inhibition at 250 ug/mL after 48 hr by agar diffusion method. Format: functional. To be noted: for zone of inhibition at 250 µg/mL: MTCC 161, 48 h, read-out: DIZ.
Experiment [3] has as its system Penicillium chrysogenum. Nature of the experiment: Antifungal activity against Penicillium chrysogenum MTCC 161 assessed as growth inhibition at 1000 ug/mL after 48 hr by agar diffusion method. Format: functional. To be noted: MTCC 161, 48 h, read-out: DIZ.
The subject of experiment [4] is Staphylococcus aureus. The experiment in a line: Antibacterial activity against Staphylococcus aureus MTCC 1430 assessed as growth inhibition at 1000 ug/mL after 48 hr by agar diffusion method. It counts as functional. To be noted: MTCC 1430, 48 h, read-out: DIZ.
Experiment [5] concerns Penicillium chrysogenum. Nature of the experiment: Antifungal activity against Penicillium chrysogenum MTCC 161 assessed as growth inhibition at 500 ug/mL after 48 hr by agar diffusion method. It counts as functional. To be noted: MTCC 161, 48 h, read-out: DIZ.
Experiment [6] deals with Pseudomonas aeruginosa. Nature of the experiment: Antibacterial activity against Pseudomonas aeruginosa MTCC 424 assessed as growth inhibition at 1250 ug/mL after 48 hr by agar diffusion method. Format: functional. To be noted: MTCC 424, 48 h, read-out: DIZ.
In experiment [7] the test system is Micrococcus luteus. Nature of the experiment: Antibacterial activity against Micrococcus luteus MTCC 1538 assessed as growth inhibition at 1000 ug/mL after 48 hr by agar diffusion method. It counts as functional. To be noted: MTCC 1538, 48 h, read-out: DIZ.
The subject of experiment [8] is Staphylococcus aureus. The experiment in a line: Antibacterial activity against Staphylococcus aureus MTCC 1430 assessed as growth inhibition at 250 ug/mL after 48 hr by agar diffusion method. To be noted: for zone of inhibition at 250 µg/mL: MTCC 1430, 48 h, read-out: DIZ. Format: functional.
The subject of experiment [9] is Aspergillus niger. Nature of the experiment: Antifungal activity against Aspergillus niger MTCC 2546 assessed as growth inhibition at 100 ug/mL after 48 hr by agar diffusion method. Format: functional, organism-based.
Experiment [10] concerns Aspergillus niger. Nature of the experiment: Antifungal activity against Aspergillus niger MTCC 2546 assessed as growth inhibition at 1250 ug/mL after 48 hr by agar diffusion method. To be noted: MTCC 2546, 48 h, read-out: DIZ. It counts as functional.
The next experiment has as its system Bacillus pumilus. Nature of the experiment: Antibacterial activity against Bacillus pumilus MTCC 1456 assessed as growth inhibition at 750 ug/mL after 48 hr by agar diffusion method. It counts as functional. To be noted: MTCC 1456, 48 h, read-out: DIZ.
Experiment [11] has as its system Pseudomonas aeruginosa. Nature of the experiment: Antibacterial activity against Pseudomonas aeruginosa MTCC 424 assessed as growth inhibition at 500 ug/mL after 48 hr by agar diffusion method. Format: functional. To be noted: MTCC 424, 48 h, read-out: DIZ.
The test system of experiment [12] is Penicillium chrysogenum. Nature of the experiment: Antifungal activity against Penicillium chrysogenum MTCC 161 assessed as growth inhibition at 750 ug/mL after 48 hr by agar diffusion method. Format: functional. To be noted: MTCC 161, 48 h, read-out: DIZ.
Experiment [13] has as its system Bacillus subtilis. The experiment in a line: Antibacterial activity against Bacillus subtilis MTCC 441 assessed as growth inhibition at 500 ug/mL after 48 hr by agar diffusion method. Format: functional. To be noted: MTCC 441, 48 h, read-out: DIZ.
Experiment [14] concerns Staphylococcus aureus. The experiment in a line: Antibacterial activity against Staphylococcus aureus MTCC 1430 assessed as growth inhibition at 1250 ug/mL after 48 hr by agar diffusion method. To be noted: MTCC 1430, 48 h, read-out: DIZ. It counts as functional.
Experiment [15] has as its system Micrococcus luteus. Nature of the experiment: Antibacterial activity against Micrococcus luteus MTCC 1538 assessed as growth inhibition at 100 ug/mL after 48 hr by agar diffusion method. It counts as functional.
The test system of experiment [16] is Pseudomonas fluorescens. Nature of the experiment: Antibacterial activity against Pseudomonas fluorescens MTCC 2421 assessed as growth inhibition at 1000 ug/mL after 48 hr by agar diffusion method. It counts as functional. To be noted: MTCC 2421, 48 h, read-out: DIZ.
Another experiment has as its system Escherichia coli. Nature of the experiment: Antibacterial activity against Escherichia coli MTCC 1573 assessed as growth inhibition at 1250 ug/mL after 48 hr by agar diffusion method. It counts as functional. To be noted: MTCC 1573, 48 h, read-out: DIZ.
For experiment [17], the system named is Pseudomonas fluorescens. Nature of the experiment: Antibacterial activity against Pseudomonas fluorescens MTCC 2421 assessed as growth inhibition at 750 ug/mL after 48 hr by agar diffusion method. It counts as functional. To be noted: MTCC 2421, 48 h, read-out: DIZ.
Experiment [18] has as its system Staphylococcus aureus. The experiment in a line: Antibacterial activity against Staphylococcus aureus MTCC 1430 assessed as growth inhibition at 100 ug/mL after 48 hr by agar diffusion method. Format: functional, organism-based.
In experiment [19] the test system is Bacillus subtilis. The experiment in a line: Antibacterial activity against Bacillus subtilis MTCC 441 assessed as growth inhibition at 750 ug/mL after 48 hr by agar diffusion method. Format: functional. To be noted: MTCC 441, 48 h, read-out: DIZ.
Experiment [20] relates to Pseudomonas aeruginosa. Nature of the experiment: Antibacterial activity against Pseudomonas aeruginosa MTCC 424 assessed as growth inhibition at 1000 ug/mL after 48 hr by agar diffusion method. It counts as functional. To be noted: MTCC 424, 48 h, read-out: DIZ.
Experiment [21] concerns Staphylococcus aureus. The experiment in a line: Antibacterial activity against Staphylococcus aureus MTCC 1430 assessed as growth inhibition at 750 ug/mL after 48 hr by agar diffusion method. Format: functional. To be noted: MTCC 1430, 48 h, read-out: DIZ.
The subject of experiment [22] is Bacillus subtilis. The experiment in a line: Antibacterial activity against Bacillus subtilis MTCC 441 assessed as growth inhibition after 24 hr by tube dilution method. Format: functional. To be noted: MTCC 441, 24 h.

In brackets after ≈: the same amount, converted by molar mass. Activity calls are given as the source filed them. The rule behind the calls is not given here.

Consider `CC1SCC(=O)N1c1nnc2c3cc(Cl)ccc3nc-2s1` (configuration not stated), for which the zone of inhibition at 250 µg/mL in the experiment on Pseudomonas fluorescens [1] was found to be 7 mm; in the experiment on Staphylococcus aureus [8], 8 mm. Further, the “growth inhibition (GI)” value in the experiment on Penicillium chrysogenum [2], in the experiment on Aspergillus niger [9], in the experiment with Micrococcus luteus [15] and in the experiment with Staphylococcus aureus [18] was “inactive” in each case. For the same compound, the zone of inhibition at 1000 µg/mL came to 18 mm in the experiment on Penicillium chrysogenum [3]; 15 mm with Staphylococcus aureus [4]; 17 mm with Micrococcus luteus [7]; 15 mm with Pseudomonas fluorescens [16]; 18 mm in the experiment on Pseudomonas aeruginosa [20]. In addition, the zone of inhibition at 500 µg/mL in the experiment with Penicillium chrysogenum [5] is 12 mm; with Pseudomonas aeruginosa [11] it was 14 mm; in the experiment on Bacillus subtilis [13] it was 15 mm. The zone of inhibition at 1250 µg/mL in the experiment on Pseudomonas aeruginosa [6] came to 20 mm; in the experiment on Aspergillus niger [10], 17 mm; with Staphylococcus aureus [14], 19 mm; in the experiment with Escherichia coli, 21 mm. In addition, the zone of inhibition at 750 µg/mL with Bacillus pumilus was 13 mm; in the experiment on Penicillium chrysogenum [12], 14 mm; in the experiment on Pseudomonas fluorescens [17], 12 mm; in the experiment with Bacillus subtilis [19] it was 17 mm; in the experiment on Staphylococcus aureus [21], 13 mm. The MIC (commonly the least concentration at which growth counts as inhibited) in the experiment with Bacillus subtilis [22] stood at 50 µg/mL (≈ 148 µM).

With `O=C1CSC(c2ccccn2)N1c1nnc2c3ccccc3nc-2s1` (configuration not stated), the zone of inhibition at 250 µg/mL worked out at 10 mm in the experiment with Pseudomonas fluorescens [1], 9 mm with Penicillium chrysogenum [2] and 8 mm with Staphylococcus aureus [8]. Besides, the zone of inhibition at 1000 µg/mL in the experiment with Penicillium chrysogenum [3] was found to be 15 mm; in the experiment with Staphylococcus aureus [4], 12 mm; with Micrococcus luteus [7], 15 mm; in the experiment on Pseudomonas fluorescens [16] it was 18 mm; in the experiment on Pseudomonas aeruginosa [20], 18 mm. The zone of inhibition at 500 µg/mL with Penicillium chrysogenum [5] turned out to be 12 mm; with Pseudomonas aeruginosa [11] it was 13 mm; in the experiment with Bacillus subtilis [13] it was 12 mm. In addition, the zone of inhibition at 1250 µg/mL in the experiment on Pseudomonas aeruginosa [6] came to 22 mm; in the experiment on Aspergillus niger [10], 17 mm; in the experiment on Staphylococcus aureus [14], 15 mm; in the experiment with Escherichia coli, 22 mm. Further, the “growth inhibition (GI)” value in the experiment on Aspergillus niger [9], with Micrococcus luteus [15] and with Staphylococcus aureus [18] was “inactive” throughout. Also, the zone of inhibition at 750 µg/mL came to 17 mm in the experiment with Bacillus pumilus; 13 mm in the experiment on Penicillium chrysogenum [12]; 15 mm in the experiment on Pseudomonas fluorescens [17]; 13 mm in the experiment on Bacillus subtilis [19]; 10 mm in the experiment on Staphylococcus aureus [21]. In the experiment on Bacillus subtilis [22], the MIC was determined as 40 µg/mL (≈ 109 µM).

`O=C1CSC(c2cccc3ccccc23)N1c1nnc2c3cc(Cl)ccc3nc-2s1` (configuration not stated): the zone of inhibition at 250 µg/mL with Pseudomonas fluorescens [1] came out at 11 mm; in the experiment with Penicillium chrysogenum [2], 8 mm. Moreover, the zone of inhibition at 1000 µg/mL was determined as 15 mm in the experiment on Penicillium chrysogenum [3]; 10 mm in the experiment with Staphylococcus aureus [4]; 15 mm in the experiment with Micrococcus luteus [7]; 20 mm in the experiment with Pseudomonas fluorescens [16]; 15 mm with Pseudomonas aeruginosa [20]. Moreover, the zone of inhibition at 500 µg/mL is 11 mm with Penicillium chrysogenum [5], 12 mm in the experiment on Pseudomonas aeruginosa [11] and 11 mm with Bacillus subtilis [13]. The zone of inhibition at 1250 µg/mL in the experiment with Pseudomonas aeruginosa [6] is 18 mm; in the experiment on Aspergillus niger [10], 18 mm; in the experiment with Staphylococcus aureus [14] it was 15 mm; with Escherichia coli, 20 mm. The “growth inhibition (GI)” value with Staphylococcus aureus [8], in the experiment with Aspergillus niger [9], in the experiment with Micrococcus luteus [15] and in the experiment on Staphylococcus aureus [18] was “inactive” each time. Moreover, the zone of inhibition at 750 µg/mL with Bacillus pumilus is 15 mm; with Penicillium chrysogenum [12], 15 mm; in the experiment with Pseudomonas fluorescens [17], 15 mm; in the experiment with Bacillus subtilis [19] it was 15 mm; in the experiment with Staphylococcus aureus [21], 8 mm. Also, the MIC with Bacillus subtilis [22] was 150 µg/mL (≈ 334 µM).
